Experimental data from patent US4743585A (Warner-Lambert Company, priority 1986, dated 1988).
Where a name gives a salt, the structure may show the parent alone.

Target: T1, renin (Homo sapiens, UniProt P00797)
T1 sequence (P00797 67-406): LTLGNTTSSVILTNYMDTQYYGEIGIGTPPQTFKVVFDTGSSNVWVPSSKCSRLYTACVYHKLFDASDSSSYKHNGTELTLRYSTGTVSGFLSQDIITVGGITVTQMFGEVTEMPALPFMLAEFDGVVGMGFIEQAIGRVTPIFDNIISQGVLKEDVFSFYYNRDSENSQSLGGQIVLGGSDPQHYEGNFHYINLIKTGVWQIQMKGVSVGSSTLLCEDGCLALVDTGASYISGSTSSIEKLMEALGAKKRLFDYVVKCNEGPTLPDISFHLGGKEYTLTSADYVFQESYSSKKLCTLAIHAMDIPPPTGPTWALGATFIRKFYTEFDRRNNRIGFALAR
Assay: in vitro renin inhibitory activity, standard radioimmunoassay for angiotensin I
Assay type: biochemical
Description: The effectiveness of the aforementioned compounds is determined by a test for in vitro renin inhibitory activity. This activity is determined by a standard radioimmunoassay for angiotensin I. In this assay the enzyme, renin, incubated for two hours at 37° in the presence of a substrate, angiotensinogen, generates the product, angiotensin I. Test compounds are added to the incubation mixture.

SMILES	IC50
Cc1c(C)c(C)c(C[C@H](CN[C@@H](Cc2c[nH]cn2)C(=O)N[C@@H](CC(C)C)[C@@H](O)CC(=O)N[C@@H](CC(C)C)C(=O)NC2CCN(Cc3ccccc3)CC2)NC(=O)OC(C)(C)C)c(C)c1C [Example 61]	30 µM
CCC(C)CNC(=O)CCC(O)[C@H](CC1CCCCC1)NC(=O)[C@H](Cc1c[nH]cn1)NC(=O)[C@H](Cc1cccc2ccccc12)NC(=O)OCc1ccccc1 (stereo partly shown) [Example 77]	1.6 µM
CC(C)CC(=O)N[C@H](CN[C@H](C(=O)N[C@@H](CC(C)C)[C@@H](O)CC(=O)N[C@@H](C)C(=O)N[C@@H](CC(C)C)[C@@H](O)CC(=O)NCc1ccccc1)C(C)C)C(C)C (relative stereo) [Example 52, 5,8,11,16,19-pentaazatricosan-23-amide, 13,2-dihydroxy-2,17-dimethyl-6,9-bis(1-methylethyl)-12,20-bis(2-methylpropyl)-4,10,15,18-tetraoxo-N-(phenylmethyl)-,:6S-(6R*,9R*,12R*,13R*,17R*,20R*,21R*):-,acetate (salt) (2:3)]	18 µM
CC(C)CC(CC(=O)[C@H](CC1CCCCC1)NC(=O)OC(C)(C)C)C(=O)N[C@@H](CC(C)C)[C@@H](O)CC(=O)N[C@@H](CC(C)C)C(=O)NCc1ccccc1 (stereo partly shown) [Example 51]	26 µM
CC(C)CC(=O)NC(Cc1ccccc1)CS(=O)(=O)C(Cc1ccccc1)C(=O)NC(CC(C)C)C(O)CC(=O)NC(C)C(=O)NC(CC(C)C)C(O)CC(=O)NCc1ccccc1 (stereo not shown) [Example 38, 13,21-dihydroxy-2,17-dimethyl-12,20-bis(2-methylpropyl)-4,10,15,18-tetraoxo-N,6,9-tris(phenylmethyl)-8-thia-5,11,16,19-tetraazatricosan-23-amide-8,8-dioxide]	1.5 µM
CC(C)CC(=O)NC(CSC(Cc1ccccc1)C(=O)NC(CC(C)C)C(O)CC(=O)NC(CC(C)C)C(=O)NCc1ccccc1)Cc1ccccc1 (stereo not shown) [Example 39, 6-hydroxy-17-methyl-2,7-bis(2-methylpropyl)-4,9,15-trioxo-N,10,13-tris(phenylmethyl)-11-thia-3,8,14-triazaoctadecanamide]	30 µM
CC(C)CC(=O)N[C@@H](Cc1ccccc1)C(=O)N[C@@H](Cc1c[nH]cn1)C(=O)N[C@@H](CC1CCCCC1)C(O)CC(CC(C)C)C(=O)NCc1ccccc1 (stereo partly shown) [Example 78]	0.24 µM
CCC(C)CNC(=O)/C=C/C(O)[C@H](Cc1ccccc1)NC(=O)[C@H](Cc1c[nH]cn1)NC(=O)[C@H](Cc1ccccc1)NC(=O)OC(C)(C)C (stereo partly shown) [Example 84, BOC-PHE-HIS-PHE[CHOHCH=CHCO]NHCH2 CH(CH3)CH2 CH3]	1.4 µM
CC(C)CC(=O)NC(Cc1ccccc1)C[S+]([O-])C(Cc1ccccc1)C(=O)NC(CC(C)C)C(O)CC(=O)NC(C)C(=O)NC(CC(C)C)C(O)CC(=O)NCc1ccccc1 (stereo not shown) [Example 40, 13,21-dihydroxy-2,17-dimethyl-12,20-bis(2-methylpropyl)-4,10,15,18-tetraoxo-N,6,9-tris(phenylmethyl)-8-thia-5,11,16,19-tetraazatricosan-23-amide-8-oxide]	2 µM
CC(C)CC(=O)N[C@H](CN[C@H](C(=O)N[C@@H](CC(C)C)[C@@H](O)CC(=O)NCc1ccccc1)C(C)C)C(C)C [Example 54, IVA-VAL[CH2 NH]VAL-STA-NHCH2 Ph]	30 µM
CC(C)CC(=O)N[C@@H](Cc1ccccc1)C(=O)N[C@@H](Cc1c[nH]cn1)C(=O)N[C@@H](CC1CCCCC1)C(O)CCC(=O)NCc1ccccc1 (stereo partly drawn) [Example 27, L-histidinamide,N-(3-methyl-1-oxobutyl)-L-phenylalanyl-N-[1-(cyclohexylmethyl)-2-hydroxy-5-oxo-5-[(phenylmethyl)amino]pentyl]]	0.25 µM
CC(C)CC(=O)N[C@@H](Cc1ccccc1)C(=O)N[C@@H](Cc1c[nH]cn1)C(=O)N[C@@H](CC1CCCCC1)C(O)CCC(=O)N[C@@H](CC(C)C)C(=O)NCc1ccccc1 (stereo partly shown) [Example 28]	0.014 µM
CC(C)CC(=O)N[C@@H](Cc1ccccc1)C(=O)N[C@@H](Cc1c[nH]cn1)C(=O)N[C@@H](CC1CCCCC1)C(O)CCC(=O)N[C@@H](CC(C)C)C(=O)NCc1cccc(CN)c1 (stereo partly shown) [Example 82]	0.12 µM
CC(C)C[C@H](NC(=O)C[C@H](O)[C@H](CC(C)C)NC(=O)C/C=C/[C@H](Cc1c[nH]c2ccccc12)NC(=O)OC(C)(C)C)C(=O)NCc1ccccc1 [Example 7, [4S-(4R*,8R*,9R*,13E,15R*)]-8-hydroxy-15-(1H-indol-3-ylmethyl)-4,9-bis(2-methylpropyl)-3,6,11-trioxo-1-phenyl-2,5,10-16-tetraazaheptadec-13-en-17-oic acid, 1,1-dimethylethyl ester]	20 µM
CCC(C)CNC(=O)CCC(O)[C@H](Cc1ccccc1)NC(=O)[C@H](Cc1c[nH]cn1)NC(=O)[C@H](Cc1ccccc1)NC(=O)OC(C)(C)C (stereo partly shown) [Example 85, BOC-PHE-HIS-PHE[CHOHCH2 ]GLY-NHCH2 CH(CH3)CH2 CH3]	0.075 µM
CC(C)CC(=O)N[C@@H](Cc1ccccc1)C(=O)N[C@H](CN[C@@H](CC(C)C)[C@@H](O)CC(=O)N[C@@H](CC(C)C)C(=O)NCc1ccccc1)Cc1c[nH]cn1 [Example 66, 3,8,11,14-Tetraazaoctadecanamide, 6-hydroxy-10-(1H-imidazol-4-ylmethyl)-17-methyl-2,7-bis(2-methylpropyl)-4,12,15-triazo-N,13-bis(phenylmethyl)-, [2S-(2R*,6R*,7R*,10R*,13R*)]]	3.5 µM
CC(C)CC(CC(O)[C@H](CC1CCCCC1)NC(=O)OC(C)(C)C)C(=O)N[C@@H](CC(C)C)[C@@H](O)CC(=O)N[C@@H](CC(C)C)C(=O)NCc1ccccc1 (stereo partly shown) [Example 79]	3.8 µM
CC(C)C[C@@H](CN(Cc1ccccc1)C(=O)OCc1ccccc1)NC(=O)C[C@H](O)[C@H](CC(C)C)NC(=O)[C@@H](NC(=O)[C@H](Cc1ccccc1)NC(=O)OC(C)(C)C)C(C)C [Example 56, l-valinamide.N-[(1,1-dimethylethoxy)carbonyl]-L-phenylalanyl-N-[2-hydroxy-4-[[3-methyl-1-[[[(phenylmethoxy)carbonyl](phenylmethyl)amino]methyl]butyl]amino]-1-(2-methylpropyl)-4-oxobutyl]-, [2S-[1R*,2R*,4R*)]]-]	16 µM
CCOC(=O)C[C@H](O)[C@H](CC(C)C)NC(=O)[C@@H](NC[C@@H](NC(=O)CC(C)C)C(C)C)C(C)C [Example 53, Heptanoic acid, 3-hydroxy-6-methyl-4-[[3-methyl-2-[[3-methyl-2-[(3-methyl-1-oxobutyl)amino]butyl]amino]-1-oxobutyl]amino]-, ethyl ester, [3S-[3R*,- 4R*[R*[R*[(R*)]]]]-]	28 µM
